# Columns and labels:
# Human 5-HT4(d) = biological target: T1, Human 5-HT4(d) (Homo sapiens, UniProt Q13639); test: Agonist-induced cAMP elevation in human 5-HT4(d) transfected HEK293 cells; assay type: cell-based; conditions: for Emax: HEK293, cAMP production normalized to the amount produced by 1,000 nM serotonin; for EC50: cAMP elevation (HTRF), human 5-HT4(d) transfected HEK293 cells
# T1 construct: expressed in transfected cells
# Experimental: Human 5-HT4(d) transfected HEK293 cells were established in-house. The cells were grown at 37° C. and 5% CO2 in DMEM supplemented with 10% FCS, 20 mM HEPES (pH 7.4), 200 μg/ml hygromycin B (Gibco), 100 units/ml penicillin and 100 μg/ml streptomycin.
# The cells were grown to 60-80% confluence. On the previous day before treatment with compounds dialyzed FCS (Gibco) was substituted for normal and the cells were incubated overnight.
# Compounds were prepared in 96-well plates (12.5 μl/well). The cells were harvested with PBS/1 mM EDTA, centrifuged and washed with PBS. At the beginning of the assay, cell pellet was resuspended in DMEM supplemented with 20 mM HEPES, 10 μM pargyline (Sigma) and 1 mM 3-isobutyl-1-methylxanthine (Sigma) at the concentration of 1.6×10^5 cells/ml and left for 15 min at room temperature. The reaction was initiated by addition of the cells into plates (12.5 μl/well). After incubation for 15 min at room temperature, 1% Triton X-100 was added to stop the reaction (25 μl/well) and the plates were left for 30 minutes at room temperature. Homogenous time-resolved fluorescence-based cAMP (Schering) detection was made according to the manufacturer's instruction. ARVOsx multilabel counter (Wallac) was used to measure HTRF (excitation 320 nm, emission 665 nm/620 nm, delay time 50 μs, window time 400 μs).
# Data was analyzed based on the ratio of fluorescence intensity of each well at 620 nm and 665 nm followed by cAMP quantification using cAMP standard curve. Enhancement of cAMP production elicited by each compound was normalized to the amount of cAMP produced by 1,000 nM serotonin (Sigma).
# T1 sequence (Q13639 1-360 isoform Q13639-3): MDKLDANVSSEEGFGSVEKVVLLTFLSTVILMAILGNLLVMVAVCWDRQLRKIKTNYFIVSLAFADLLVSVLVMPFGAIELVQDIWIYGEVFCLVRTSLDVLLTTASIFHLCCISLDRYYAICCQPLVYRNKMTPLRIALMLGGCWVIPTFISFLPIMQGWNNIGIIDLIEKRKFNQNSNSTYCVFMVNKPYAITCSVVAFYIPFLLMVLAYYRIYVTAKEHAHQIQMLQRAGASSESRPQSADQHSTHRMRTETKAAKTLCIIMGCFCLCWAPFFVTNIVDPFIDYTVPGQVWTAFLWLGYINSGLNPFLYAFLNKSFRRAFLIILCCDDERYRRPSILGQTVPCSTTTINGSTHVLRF
structure (smiles),measurement,setting,value
"CC(C)COc1cccc2onc(NCC3CCN(CC4(C(=O)O)CCOCC4)CC3)c12 [Example 16, 4-[(4-{[(4-Isobutoxy-1,2-benzisoxazol-3-yl)amino]methyl}piperidin-1-yl)methyl]tetrahydro-2H-pyran-4-carboxylic acid]",Emax,Human 5-HT4(d),55%
same,EC50,Human 5-HT4(d),1.6 nM
same,melting point,,178.2 °C
"O=C(O)C1(CCN2CCC(COc3noc4cccc(OCC5CCCC5)c34)CC2)CCOCC1 [Example 23, 4-{2-[4-({[4-(Cyclopentylmethoxy)-1,2-benzisoxazol-3-yl]oxy}methyl)piperidin-1-yl]ethyl}tetrahydro-2H-pyran-4-carboxylic acid]",Emax,Human 5-HT4(d),77%
same,EC50,Human 5-HT4(d),22 nM
same,melting point,,212.5 °C
"O=C(O)C1(CN2CCC(COc3noc4cccc(OC5CCOCC5)c34)CC2)CCCC1 [Example 28, 1-{[4-({[4-(Tetrahydro-2H-pyran-4-yloxy)-1,2-benzisoxazol-3-yl]oxy}methyl)piperidin-1-yl]methyl}-cyclopentanecarboxylic acid]",Emax,Human 5-HT4(d),78%
same,EC50,Human 5-HT4(d),6.6 nM
same,melting point,,172.9 °C
"CC(C)(CN1CCC(COc2noc3cccc(OCC(F)(F)F)c23)CC1)C(=O)O [Example 3, 2,2-Dimethyl-3-[4-({[4-(2,2,2-trifluoroethoxy)-1,2-benzisoxazol-3-yl]oxy}methyl)-piperidin-1-yl]propanoic acid]",Emax,Human 5-HT4(d),34%
same,EC50,Human 5-HT4(d),0.69 nM
same,melting point,,129.2 °C
"CC(C)COc1cccc2onc(OCC3CCN(C[C@H]4CC[C@H](C(=O)O)CC4)CC3)c12 [Example 14, trans-4-[(4-{[(4-Isobutoxy-1,2-benzisoxazol-3-yl)oxy]methyl}piperidin-1-yl)methyl]cyclohexane-carboxylic acid]",Emax,Human 5-HT4(d),41%
same,EC50,Human 5-HT4(d),2 nM
same,melting point,,103.3 °C
"CC(C)COc1cccc2onc(OCC3CCN(CCC4(C(=O)O)CCOCC4)CC3)c12 [Example 13, 4-[2-(4-{[(4-Isobutoxy-1,2-benzisoxazol-3-yl)oxy]methyl}piperidin-1-yl)ethyl]tetrahydro-2H-pyran-4-carboxylic acid]",Emax,Human 5-HT4(d),54%
same,EC50,Human 5-HT4(d),2.7 nM
same,melting point,,213.8 °C
O=C(O)C1(CN2CCC(COc3noc4cccc(OCC5(CO)CCC5)c34)CC2)CCC1 [Example 50],Emax,Human 5-HT4(d),50%
same,EC50,Human 5-HT4(d),98 nM
same,melting point,,194.2 °C
"O=C(O)C(F)(F)CN1CCC(COc2noc3cccc(OCC(F)(F)F)c23)CC1 [Example 6, 2,2-Difluoro-3-[4-({[4-(2,2,2-trifluoroethoxy)-1,2-benzisoxazol-3-yl]oxy}methyl)-piperidin-1-yl]propanoic acid]",Emax,Human 5-HT4(d),30%
same,EC50,Human 5-HT4(d),20 nM
same,melting point,,227.1 °C
"O=C(O)C1(CN2CCC(COc3noc4cccc(OCC5CCC5)c34)CC2)CCC1 [Example 20, 1-{[4-({[4-(Cyclobutylmethoxy)-1,2-benzisoxazol-3-yl]oxy}methyl)piperidin-1-yl]methyl}cyclo-butanecarboxylic acid]",Emax,Human 5-HT4(d),50%
same,EC50,Human 5-HT4(d),0.24 nM
same,melting point,,176.9 °C
"O=C(O)C1(CN2CCC(COc3noc4cccc(O[C@H]5CC[C@@H](CO)CC5)c34)CC2)CCCC1 [Example 48, 1-[(4-{[(4-{[cis-4-(Hydroxymethyl)cyclohexyl]oxy}-1,2-benzisoxazol-3-yl)oxy]methyl}piperidin-1-yl)methyl]cyclopentanecarboxylic acid]",Emax,Human 5-HT4(d),43%
same,EC50,Human 5-HT4(d),4.3 nM
same,melting point,,188 °C
"O=C(O)C1(CCN2CCC(COc3noc4cccc(OCC5CCC5)c34)CC2)CCOCC1 [Example 21, 4-{2-[4-({[4-(cyclobutylmethoxy)-1,2-benzisoxazol-3-yl]oxy}methyl)piperidin-1-yl]ethyl}tetrahydro-2H-pyran-4-carboxylic acid]",Emax,Human 5-HT4(d),61%
same,EC50,Human 5-HT4(d),5.3 nM
same,melting point,,223.2 °C
"O=C(O)C1(CN2CCC(COc3noc4cccc(O[C@H]5CC[C@@H](CO)CC5)c34)CC2)CCOCC1 [Example 46, 4-[(4-{[(4-{[cis-4-(Hydroxymethyl)cyclohexyl]oxy}-1,2-benzisoxazol-3-yl)oxy]methyl}piperidin-1-yl)-methyl]tetrahydro-2H-pyran-4-carboxylic acid]",Emax,Human 5-HT4(d),45%
same,EC50,Human 5-HT4(d),5.5 nM
same,melting point,,197.2 °C
"O=C(O)C1(CN2CCC(COc3noc4cccc(O[C@H]5CC[C@@H](O)CC5)c34)CC2)CCCC1 [Example 45, 1-({4-[({4-[(cis-4-Hydroxycyclohexyl)oxy]-1,2-benzisoxazol-3-yl}oxy)methyl]piperidin-1-yl}methyl)-cyclopentanecarboxylic acid]",Emax,Human 5-HT4(d),42%
same,EC50,Human 5-HT4(d),3.8 nM
same,melting point,,189.6 °C
"O=C(O)C1(CN2CCC(COc3noc4cccc(OCC5CCCC5)c34)CC2)CCOCC1 [Example 22, 4-{[4-({[4-(Cyclopentylmethoxy)-1,2-benzisoxazol-3-yl]oxy}methyl)piperidin-1-yl]methyl}tetrahydro-2H-pyran-4-carboxylic acid]",Emax,Human 5-HT4(d),73%
same,EC50,Human 5-HT4(d),4.4 nM
same,melting point,,185.6 °C
"O=C(O)C1(CN2CCC(COc3noc4cccc(OC5CCCC5)c34)CC2)CCOCC1 [Example 24, 4-{[4-({[4-(Cyclopentyloxy)-1,2-benzisoxazol-3-yl]oxy}methyl)piperidin-1-yl]methyl}tetrahydro-2H-pyran-4-carboxylic acid]",Emax,Human 5-HT4(d),52%
same,EC50,Human 5-HT4(d),1.4 nM
same,melting point,,177.7 °C
"O=C(O)C1(CN2CCC(COc3noc4cccc(OCC(F)(F)F)c34)CC2)CCC1 [Example 2, 1-{[4-({[4-(2,2,2-Trifluoroethoxy)-1,2-benzisoxazol-3-yl]oxy}methyl)piperidin-1-yl]methyl}-cyclobutanecarboxylic acid]",Emax,Human 5-HT4(d),47%
same,EC50,Human 5-HT4(d),0.51 nM
same,melting point,,164.9 °C
"O[C@H]1CCCC[C@H]1Oc1cccc2onc(OCC3CCN(CC4(O)CCOCC4)CC3)c12 (relative stereo) [Example 40, 4-({4-[({4-[(cis-2-Hydroxycyclohexyloxyl)oxy]-1,2-benzisoxazol-3-yl]oxy)methyl}piperidin-1-yl}-methyl)tetrahydro-2H-pyran-4-ol]",Emax,Human 5-HT4(d),42%
same,EC50,Human 5-HT4(d),16 nM
same,melting point,,125.2 °C
